Experimental findings from ChEMBL document CHEMBL4002550, “Fragment-based discovery of novel pentacyclic triterpenoid derivatives as cholesteryl ester transfer protein inhibitors” (Eur J Med Chem, 2017) are described below.

The assay concerns the target T1, Cholesteryl ester transfer protein (Homo sapiens, UniProt P11597).
T1 sequence (P11597 whole entry): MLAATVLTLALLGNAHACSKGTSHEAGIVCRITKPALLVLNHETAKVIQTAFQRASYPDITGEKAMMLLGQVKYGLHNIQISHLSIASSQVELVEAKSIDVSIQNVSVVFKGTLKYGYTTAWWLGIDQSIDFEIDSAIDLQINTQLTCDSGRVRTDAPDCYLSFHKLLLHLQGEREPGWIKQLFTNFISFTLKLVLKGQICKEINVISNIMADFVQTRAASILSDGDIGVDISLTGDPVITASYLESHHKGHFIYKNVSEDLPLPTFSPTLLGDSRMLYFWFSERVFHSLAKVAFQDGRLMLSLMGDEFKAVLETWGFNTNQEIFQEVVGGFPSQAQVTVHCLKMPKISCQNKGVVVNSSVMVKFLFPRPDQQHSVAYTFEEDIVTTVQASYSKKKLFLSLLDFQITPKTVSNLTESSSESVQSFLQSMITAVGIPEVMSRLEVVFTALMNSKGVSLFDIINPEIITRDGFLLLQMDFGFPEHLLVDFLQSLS
Nature of the assay: Inhibition of recombinant full length human CETP expressed in CHO cells assessed as reduction in BODIPY-CE transfer measured after 1 to 3 hrs by fluorescence assay. It is filed as cell-based.

With `CCOC(=O)N1c2ccc(C(F)(F)F)cc2[C@@H](NC(=O)CC(=O)O[C@H]2CC[C@]3(C)[C@H]4CC=C5[C@@H]6[C@@H](C)[C@H](C)CC[C@]6(C(=O)O)CC[C@@]5(C)[C@]4(C)CC[C@H]3C2(C)C)C[C@H]1CC`, the IC50 stood at 4.42 µM. Next, `CCOC(=O)N1c2ccc(C(F)(F)F)cc2[C@@H](NC(=O)CCCC(=O)O[C@H]2CC[C@]3(C)[C@H]4CC=C5[C@@H]6CC(C)(C)CC[C@]6(C(=O)O)CC[C@@]5(C)[C@]4(C)CC[C@H]3C2(C)C)C[C@H]1CC`: greater than 50 µM; `CCOC(=O)N1c2ccc(C(F)(F)F)cc2[C@@H](NC(=O)CC(=O)O[C@H]2CC[C@]3(C)[C@H]4CC=C5[C@@H]6CC(C)(C)CC[C@]6(C(=O)O)CC[C@@]5(C)[C@]4(C)CC[C@H]3C2(C)C)C[C@H]1CC`: greater than 50 µM; `CCOC(=O)N1c2ccc(C(F)(F)F)cc2[C@@H](NC(=O)CCCC(=O)O[C@H]2CC[C@]3(C)[C@H]4CC=C5[C@@H]6[C@@H](C)[C@H](C)CC[C@]6(C(=O)O)CC[C@@]5(C)[C@]4(C)CC[C@H]3C2(C)C)C[C@H]1CC`: 3.79 µM. Turning to `CCOC(=O)N1c2ccc(C(F)(F)F)cc2[C@@H](NC(=O)CCC(=O)O[C@H]2CC[C@]3(C)[C@H]4CC=C5[C@@H]6CC(C)(C)CC[C@]6(C(=O)O)CC[C@@]5(C)[C@]4(C)CC[C@H]3C2(C)C)C[C@H]1CC`, the IC50 was greater than 50 µM. The value for `CCOC(=O)N1c2ccc(C(F)(F)F)cc2[C@@H](NC(=O)CCC(=O)O[C@H]2CC[C@]3(C)[C@H]4CC=C5[C@@H]6[C@@H](C)[C@H](C)CC[C@]6(C(=O)O)CC[C@@]5(C)[C@]4(C)CC[C@H]3C2(C)C)C[C@H]1CC` was 0.28 µM.
